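48-hour exposure; five concentrations; linearly interpolated endpoints. GI50 = concentration required for 50% inhibition of growth.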 The source made the active and inactive calls. Cut-off read from the data, not from the text of the source: active = GI50 up to about 1.1 µM and inactive = higher.
Assays:
Assay in all cases: DTP human tumour cell line panel, 48 h
[1] = system: NCI-H23
[2] = system: MCF7
[3] = system: RPMI-8226
[4] = system: M14
[5] = system: UO-31
[6] = system: SR
[7] = system: IGROV-1
[8] = system: SNB-75
[9] = system: UACC-62
[10] = system: OVCAR-3
[11] = system: NCI/ADR-RES
[12] = system: MDA-MB-231
[13] = system: U-251
[14] = system: HCT-15
[15] = system: KM12
[16] = system: ACHN
[17] = system: TK-10
[18] = system: HOP-92
[19] = system: HCT-116
[20] = system: MDA-N
[21] = system: SN12C
[22] = system: PC-3
[23] = system: SF-268
[24] = system: K562
[25] = system: OVCAR-5
[26] = system: A549
[27] = system: OVCAR-4
[28] = system: SW-620
[29] = system: T47D
[30] = system: DU-145
[31] = system: SNB-19
[32] = system: CAKI-1
[33] = system: HL-60
[34] = system: NCI-H460
[35] = system: NCI-H522
[36] = system: SK-MEL-28
[37] = system: OVCAR-8
[38] = system: BT-549
[39] = system: SF-295
[40] = system: A498
[41] = system: UACC-257
[42] = system: MDA-MB-435
[43] = system: NCI-H226
[44] = system: SK-MEL-5
[45] = system: SF-539
[46] = system: CCRF-CEM
[47] = system: HCC 2998
[48] = system: RXF 393
[49] = system: COLO 205
[50] = system: HT-29
[51] = system: MOLT-4
[52] = system: HOP-62
[53] = system: Malme-3M
[54] = system: SK-OV-3
[55] = system: Hs-578T
[56] = system: EKVX
[57] = system: LOX IMVI
[58] = system: SK-MEL-2
[59] = system: 786-0

Measured: GI50

COC(=O)C(Cc1cn(C(C)=O)c2ccccc12)P(=O)(OC)OC (stereo not drawn)
inactive: [1] > 100 µM | [2] 20.7 µM | [3] > 100 µM | [4] > 100 µM | [5] 72.9 µM | [6] > 100 µM | [7] > 100 µM | [8] 60.3 µM | [9] > 100 µM | [10] > 100 µM | [11] > 100 µM | [12] > 100 µM | [13] > 100 µM | [15] > 100 µM | [16] > 100 µM | [17] > 100 µM | [18] > 100 µM | [19] > 100 µM | [20] > 100 µM | [21] > 100 µM | [22] > 100 µM | [23] > 100 µM | [24] > 100 µM | [25] 95.3 µM | [26] > 100 µM | [27] > 100 µM | [28] > 100 µM | [29] > 100 µM | [30] > 100 µM | [31] > 100 µM | [32] > 100 µM | [33] > 100 µM | [34] > 100 µM | [35] > 100 µM | [36] > 100 µM | [37] > 100 µM | [38] > 100 µM | [39] > 100 µM | [40] > 100 µM | [41] > 100 µM | [42] > 100 µM | [43] > 100 µM | [44] > 100 µM | [45] > 100 µM | [46] > 100 µM | [47] > 100 µM | [48] > 100 µM | [49] > 100 µM | [50] > 100 µM
> 100 µM: [14]

COc1cc(C2c3cc4c(cc3OC(N3CCOCC3)C2C)OCO4)cc(OC)c1O (stereo not drawn)
inactive: [1] 24.8 µM | [2] 5.35 µM | [3] 8.2 µM | [4] 7.29 µM | [5] 14.8 µM | [6] 3.82 µM | [51] 3.18 µM | [7] 7.6 µM | [8] 1.79 µM | [9] 3.73 µM | [10] 5.42 µM | [11] 3.35 µM | [12] 10.1 µM | [13] 7.52 µM | [52] 9.57 µM | [15] 4.73 µM | [16] 12.2 µM | [17] 18.7 µM | [18] 12.8 µM | [19] 4.13 µM | [21] 13.7 µM | [53] 3.29 µM | [22] 6.19 µM | [23] 17.7 µM | [24] 3.38 µM | [25] 46.6 µM | [26] 8.91 µM | [27] 36.6 µM | [54] 5.69 µM | [28] 3.84 µM | [29] 9.04 µM | [30] 29.7 µM | [55] 3.18 µM | [31] 22.3 µM | [32] 11.5 µM | [33] 3.52 µM | [34] 5.09 µM | [56] 36.2 µM | [35] 2.8 µM | [57] 6.7 µM | [36] 12.9 µM | [37] 14.2 µM | [38] 7.43 µM | [39] 3.59 µM | [40] 15.1 µM | [41] 17.8 µM | [58] 6.9 µM | [42] 2.1 µM | [43] 22.6 µM | [44] 3.18 µM | [45] 5.66 µM | [59] 10.1 µM | [46] 3.14 µM | [47] 10.5 µM | [48] 14.7 µM | [49] 15.6 µM | [50] 4.04 µM
2.87 µM: [14]

Reference: ChEMBL document CHEMBL1201862, “PubChem BioAssay data set” (2004)
